Earlier results in patent EP3231454B1, “BONE CEMENT COMPRISING MICROENCAPSULATED ANTIMICROBIAL” (UNIVERSIDAD PONTIFICIA COMILLAS, priority 2016, dated 2017).

Conditions: addition of 1 g of vancomycin to bone cement

CN[C@H](CC(C)C)C(=O)N[C@H]1C(=O)N[C@@H](CC(N)=O)C(=O)N[C@H]2C(=O)N[C@H]3C(=O)N[C@H](C(=O)N[C@H](C(=O)O)c4cc(O)cc(O)c4-c4cc3ccc4O)[C@H](O)c3ccc(c(Cl)c3)Oc3cc2cc(c3O[C@@H]2O[C@H](CO)[C@@H](O)[C@H](O)[C@H]2O[C@H]2C[C@](C)(N)[C@H](O)[C@H](C)O2)Oc2ccc(cc2Cl)[C@H]1O [vancomycin]
reduction in bending resistance: more than 20%
